From article PMC11524583, “Neurons enhance blood–brain barrier function via upregulating claudin-5 and VE-cadherin expression due to glial cell line-derived neurotrophic factor secretion” (eLife, 2024)
Several values for one entry are separate records, joined by “and”; a condition that tells them apart may be missing. Equal entries are not always repeated. Entries after “also recorded” stand apart in the source; their conditions may differ. Where two headings read alike, the source gives them in different places. Marks after values point to notes of the source that are not given here.

Key:
[1] = test system: hCMEC/D3 mono-culture BBB model
[2] = test system: triple co-culture BBB model (hCMEC/D3, U251 and SH-SY5Y cells)
in vitro [3] = conditions: human
in vitro [4] = conditions: human; remark: listed apart in the source
[5] = unbound fraction in brain, cited from earlier work
[6] = in situ brain perfusion in rodents, published permeability multiplied by VSA 150 cm^2/g, cited from earlier work
[7] = test system: triple co-culture BBB model (hCMEC/D3, U251 and SH-SY5Y cells); test: In vitro BBB permeability study (Papp), triple co-culture BBB model
[8] = test system: hCMEC/D3 mono-culture BBB model; test: In vitro BBB permeability study (Papp), hCMEC/D3 mono-culture BBB model
[9] = test system: hCMEC/D3 mono-culture BBB model; test: TEER of hCMEC/D3 mono-culture BBB model; format: cell-based, Homo sapiens; conditions: hCMEC/D3 mono-culture, 200 pg/ml GDNF, day 6; 3 μM SPP-86 or 5 μM PP2
[10] = test system: triple co-culture BBB model (hCMEC/D3, U251 and SH-SY5Y cells); test: TEER of triple co-culture BBB model; format: cell-based, Homo sapiens; conditions: for TEER: Figure 2Q, group Triple+SPP, individual replicates, listed as SPP
Experimental: The establishment process of the triple co-culture model is illustrated in Figure 9. SH-SY5Y cells were seeded at a density of 4.5 × 10^4 cells/cm^2 in plates and differentiated with 10 μM retinoic acid (Sigma-Aldrich, St. Louis, MO, USA) for 72 hr. The differentiated SH-SY5Y cells were cultured in the fresh DMEM/F12 medium containing 10% FBS. U251 cells were seeded at 2 × 10^4 cells/cm^2 on the bottom of Transwell inserts (PET, 0.4 µm pore size, SPL Life Sciences, Pocheon, Korea) coated with rat-tail collagen (Corning Inc, Corning, NY, USA). Next, the inserts were suspended in plate wells containing the culture medium after 5 hr of incubation. After 24 hr of incubation, hCMEC/D3 cells were seeded on the apical side of the inserts at 3 × 10^4 cells/cm^2 and cultured for another 48 hr. Then, the inserts seeded with U251 and hCMEC/D3 cells were suspended in plates seeded with differentiated SH-SY5Y cells and co-cultured for another 6 days. The culture medium was replaced every 24 hr. TEER was periodically measured using a Millicell-ERS (MERS00002) instrument (Millipore, Billerica MA, USA) to monitor cell confluence and development of TJs.

claudin-5 = test: Western blot of claudin-5 expression in hCMEC/D3 cells; format: cell-based, Homo sapiens
Experimental: (§1) Whole-cell and tissue lysates, nucleoprotein, and cytoplasmic protein were prepared using RIPA Lysis Buffer (Beyotime, Shanghai, China) as the described method ([Wu et al., 2021]). Proteins were separated through sodium dodecyl sulfate–polyacrylamide gel electrophoresis and transferred onto nitrocellulose or polyvinylidene difluoride membranes. The membranes were blocked with 5% skim milk and incubated with corresponding primary antibodies at 4°C overnight. After being washed with Tris-buffered saline Tween buffer, the membranes were incubated with secondary antibodies (Cell Signaling Technology, MA, USA) at 1:3000 dilution: Anti-mouse IgG, HRP-linked Antibody (#7076), Anti-rabbit IgG, HRP-linked Antibody (#7074). Protein levels were visualized using a highly sensitive ECL western blotting substrate and a gel imaging system (Tanon Science & Technology, Shanghai, China).
(§2) CM of U251 cells (U-CM), SH-SY5Y cells (S-CM), or co-culture of U251 and SH-SY5Y cells (US-CM) was prepared. U251 cells were seeded at the top of the insert membrane and suspended on 6-well plates seeded with differentiated SH-SY5Y cells to co-culture U251 cells with SH-SY5Y cells. The medium was collected every 24 hr. The CMs were subsequently used for hCMEC/D3 cell culture after filtrating with 0.2 μm filters for 144 hr. The levels of GDNF, bFGF, IGF-1, and TGF-β in CMs were measured using corresponding ELISA kits according to the manufacturers’ instructions.
(§3) Exogenous and endogenous GDNF in the medium was neutralized with anti-GDNF antibody (#AF-212-NA, R&D system, Minneapolis, MN, USA). 0.25, 0.5, and 1.0 μg/ml anti-GDNF antibody was added into the US-CM or medium containing 200 pg/ml GDNF, and then the medium was preincubated at 4°C for 1 hr. The hCMEC/D3 cells were incubated with 200 pg/ml GDNF or US-CM containing anti-GDNF antibody or not for 6 days, and then cell lysate was collected for western blot. The medium was replaced every 24 hr.
(§4) Here, hCMEC/D3 cells were plated in the plates or culture dishes at 6 × 10^4 cells/cm^2 and transfected with 10 nM of negative control or human FOXO1, ETS1, and CDH5 siRNA (Tsingke Biotechnology, Beijing, China) for 12 hr using Lipofectamine 3000 (Invitrogen, Carlsbad, CA, USA) reagent according to the manufacturer’s instructions. Cells were then incubated with a medium containing GDNF for 72 hr.
The plasmids encoding FOXO1 (EX-Z7404-M02) were constructed by GeneCopoeia (Rockville, MD, USA). The hCMEC/D3 cells were plated in plates or dishes at 6 × 10^4 cells/cm^2. They were subsequently transfected with 1 µg of negative control or plasmids encoding FOXO1 6 hr using Lipofectamine 3000 reagent according to the manufacturer’s instructions. Transfected cells were then incubated with the medium containing GDNF for 72 hr.

VE-cadherin = test: Western blot of VE-cadherin expression in hCMEC/D3 cells; format: cell-based, Homo sapiens
Experimental: as §1, §2, §3, §4

hCMEC/D3 cells = test: EdU incorporation assay; format: cell-based, Homo sapiens; conditions: for EdU incorporation, EdU + fraction / EdU incorporation, EdU − fraction: 6 days
Experimental: The cells were incubated with medium containing 10 μM Edu for 2 hr. […] The EdU incorporation assay was measured using the BeyoClick EdU Cell Proliferation Kit (Beyotime Biotechnology, Shanghai, China) according to the manufacturer’s instructions. The samples were determined on the FACSCelesta flow cytometer (Becton, Dickins on and Company, USA), and data were analyzed by Flowjo 10.4 software.

[11] = hCMEC/D3 cells, 200 pg/ml GDNF, 3 μM SPP-86, 5 μM PP2, 3 μM LY294002, 2 μM U0126, 5 μM SP600125, 2 μM SB203580, anti-GDNF antibody 0.25, 0.5, 1.0 μg/ml
[12] = hCMEC/D3 cells, US-CM, 3 μM SPP-86, 5 μM PP2, 3 μM LY294002, 2 μM U0126, anti-GDNF antibody 0.25, 0.5, 1.0 μg/ml
[13] = hCMEC/D3 cells incubated with conditioned medium or neurotrophic factor vs normal medium

Row | Compound | PSPre, Mono ([1]; human) | PS ([1]; human, 30 min) [µL/min/g] | PS ([2]; human, 30 min) [µL/min/g] | Papp A→B at 30 min (in vitro [3]; Papp, Mono) [×10⁻⁶ cm/s] | Papp A→B at 30 min (in vitro [4]; Papp, Triple) [×10⁻⁶ cm/s] | PSObs ([6]; ref Summerfield et al., 2007) | Papp A→B at 30 min (in vitro [3]; Papp Mean) [×10⁻⁶ cm/s] | fu, brain ([5]; ref Summerfield et al., 2007) | further results
1 | NC12CC3CC(CC(C3)C1)C2 [Amantadine] | 310.22 µL/min/g | 310.22 | 165.23 | 6.84 ± 0.95 | 3.64 ± 0.26 | 116.10^† μl/min/g |  |  | Papp A→B at 30 min (in vitro [4]; Papp (individual replicate)): 3.04 ×10⁻⁶ cm/s; fu, brain ([5]; ref Esaki et al., 2019): 0.1985^*
2 | CN(C)CCC=C1c2ccccc2CCc2ccccc21 [Amitriptyline] | 13,716.00 μl/min/g | 13716.00 | 13149.00 | 15.2 ± 0.64 | 14.6 ± 0.27 |  | 15.2 |  | PSPre, Triple ([2]; human): 13,149.00 μl/min/g; Papp A→B at 30 min (in vitro [3]; Papp (individual replicate)): 16.6 ×10⁻⁶ cm/s; Papp A→B at 30 min (in vitro [4]; Papp (individual replicate)): 14 ×10⁻⁶ cm/s; Papp A→B at 30 min (in vitro [4]; Papp Mean): 14.6 ×10⁻⁶ cm/s; fu, brain ([5]; ref Fridén et al., 2011): 0.01^‡; fu, brain ([5]; ref Sánchez-Dengra et al., 2021): 0.002; fu, brain ([5]; ref Weber et al., 2013): 0.0071; PSObs ([6]; ref Avdeef and Sun, 2011): 4608.00^*** μl/min/g
3 | CC(NC(C)(C)C)C(=O)c1cccc(Cl)c1 (centres unmarked) [Buproprion] |  |  |  |  |  |  |  |  | PS [1]: 1139.58 µL/min/g; PS [2]: 850.58 µL/min/g; Papp A→B ([7]; read-out: Papp Mean, Triple co-culture BBB model, mean of 4 replicates): 11.3 ×10⁻⁶ cm/s; Papp A→B ([8]; read-out: Papp Mean, Mono-culture BBB Model, mean of 4 replicates): 15.2 ×10⁻⁶ cm/s
4 | NC(=O)N1c2ccccc2C=Cc2ccccc21 [Carbamazepine] | 2666.89 µL/min/g | 2666.89 | 908.69 | 34.4 ± 1.26 | 11.7 ± 0.15 | 959.40^† μl/min/g |  |  | fu, brain ([5]; ref Maurer et al., 2005): 0.116^¶
5 | CN1CCN(C2=Nc3cc(Cl)ccc3Nc3ccccc32)CC1 [Clozapine] | 25,052.57 μl/min/g | 25052.57 | 8272.72 | 39 ± 0.54 | 12.9 ± 2.06 |  |  |  | Papp A→B at 30 min (in vitro [3]; Papp (individual replicate)): 38.9 ×10⁻⁶ cm/s; fu, brain ([5]; ref Bhyrapuneni et al., 2018): 0.0056; fu, brain ([5]; ref Cremers et al., 2012): 0.014^**
6 | CN(C)CCC=C1c2ccccc2COc2ccccc21 [Doxepin] | 6076.80 µL/min/g | 6076.80 | 3837.60 | 16.9 ± 1.08 |  | 2192.40^† μl/min/g | 16.9 | 0.025^† | 
7 | CCN(CC)CCNC(=O)c1cc(Cl)c(N)cc1OC [Metoclopramide] | 348.66 µL/min/g | 348.66 | 163.41 | 14.1 ± 1.44 |  | 125.10^† μl/min/g | 14.1 | 0.365^† | 
8 | CN1CCN2c3ncccc3Cc3ccccc3C2C1 (centres unmarked) [Mirtazapine] | 2637.00 µL/min/g | 2637.00 | 2009.25 | 23.4 ± 0.44 | 17.9 ± 0.21 | 1912.50^† μl/min/g |  | 0.08^† | 
9 | CC(C)n1nc(C#Cc2ccccc2)c2c(N)ncnc21 [SPP-86] |  |  |  |  |  |  |  |  | GDNF-increased TEER values, effect of inhibitor [9]: almost abolished; TEER ([10]; Day3): 56.76 Ω·cm2 and 57.75 Ω·cm2 and 55.77 Ω·cm2 and 59.4 Ω·cm2; TEER ([10]; Day4): 63.03 Ω·cm2 and 62.37 Ω·cm2 and 61.38 Ω·cm2 and 59.4 Ω·cm2; TEER ([10]; Day5): 71.94 Ω·cm2 and 75.24 Ω·cm2 and 74.25 Ω·cm2 and 72.27 Ω·cm2; TEER ([10]; Day6): 75.24 Ω·cm2 and 76.56 Ω·cm2 and 75.9 Ω·cm2 and 74.25 Ω·cm2; increased TEER values in the triple co-culture BBB model, effect of inhibitor ([10]; day 6, 3 μM SPP-86 or 5 μM PP2): completely reversed; GDNF-induced claudin-5 expression (claudin-5; [11]): markedly attenuated; also recorded: significantly suppressed; US-CM-induced claudin-5 expression (claudin-5; [12]): markedly attenuated; also recorded: markedly reversed; GDNF-induced VE-cadherin expression (VE-cadherin; [11]): markedly attenuated; also recorded: significantly suppressed; US-CM-induced VE-cadherin expression (VE-cadherin; [12]): markedly attenuated; also recorded: markedly reversed; decreased permeability of fluorescein and FITC-Dex in the triple co-culture BBB model, effect of inhibitor ([7]; 3 μM SPP-86 or 5 μM PP2): completely reversed; GDNF-decreased permeability of fluorescein and FITC-Dex, effect of inhibitor ([8]; hCMEC/D3 mono-culture, 200 pg/ml GDNF, 3 μM SPP-86 or 5 μM PP2): almost abolished
10 | bFGF: basic fibroblast growth factor, recombinant protein |  |  |  |  |  |  |  |  | claudin-5 expression (claudin-5; [13]): without affecting; VE-cadherin expression (VE-cadherin; [13]): without affecting; EdU incorporation, EdU + fraction (hCMEC/D3 cells; bFGF 6 ng/mL): 21.1; EdU incorporation, EdU − fraction (hCMEC/D3 cells; bFGF 6 ng/mL): 78.9; EdU incorporation, EdU + fraction (hCMEC/D3 cells; bFGF 20 ng/mL): 28.3; EdU incorporation, EdU − fraction (hCMEC/D3 cells; bFGF 20 ng/mL): 71.7; EdU incorporation, EdU + fraction (hCMEC/D3 cells; bFGF 60 ng/mL): 31.0; EdU incorporation, EdU − fraction (hCMEC/D3 cells; bFGF 60 ng/mL): 69.0; cell proliferation (hCMEC/D3 cells; bFGF (6, 20, and 60 ng/ml) for 6 days, EdU incorporation and cell viability): increased cell proliferation
